Patent publication US20180185374A1, “INHIBITORS OF MTOR KINASE AS ANTI-VIRAL AGENTS” (THE TRUSTEES OF PRINCETON UNIVERSITY, priority 2009, published 2018)

What was measured:
[1] = system: HCMV; experiment: Torin1 drug release experiment, HCMV yield 16 days post infection by TCID50; format: cell-based, human cytomegalovirus; settings: ≤250 nM drug
Experimental: FIG. 1. […] Serum-starved confluent human fibroblasts were infected with HCMV at a multiplicity of 0.05 PFU/cell. Cell-free virus was quantified by a TCID50 assay, and error bars represent the standard errors of the means from two independent experiments, each performed in duplicate. […] Supernatants were harvested every other day and replaced with fresh medium containing the appropriate treatment, and virus in the supernatant was assayed on the indicated days. […] Infected fibroblasts were treated with various doses of Torin1. Medium with drug was replaced every other day, and virus in the supernatant was assayed on day 8 post infection (black bars). On day 8, a second set of cultures was washed twice, serum-free medium containing no drug was added to each well, and virus was assayed after an additional 8 days (16 days post infection) (white bars).
To further confirm that the viral growth defect was not the result of cytotoxicity, we performed a drug release experiment. […] Eight days later, virus in the supernatant was quantified by the TCID50 method (16 days post infection) (FIG. 1B).

[2] = system: eIF4F complex; experiment: m7G-Sepharose cap-binding assay, MCMV-infected MEFs; format: cell-based, mouse; settings: Torin1 250 nM, 48 hpi
Experimental: FIG. 7. […] At 6 days post infection the amount of MCMV in cell-free supernatants was determined by the TCID50 method. The error bars represent the standard errors of the means from three independent experiments, each performed in duplicate. […] At 48 hpi equal amounts of protein from cell lysates were incubated with m^7G-Sepharose. The presence of eIF4F complex components bound by the cap analog was determined by Western blotting. The results are representative of two independent experiments.
We first investigated the requirement for mTORC2 for the replication of MCMV. […] Finally, the cells were confirmed to lack an intact Rictor locus when assayed by PCR (FIG. 6C). We also employed Akt1/Akt2-null MEFs to evaluate a possible role for the Akt kinase, one of the targets of mTORC2. […] Again, the cells were confirmed to lack Akt by Western blot assay (FIG. 6F). […] 4EBP1 functions to inhibit eIF4F complex assembly unless inactivated by mTORC1-mediated phosphorylation. […] Finally, that 4EBP1 was not detected in lysates of these cells by Western blot assay confirmed the phenotype of the MEFs.

[3] = system: HCMV; experiment: HCMV DNA accumulation by qPCR; format: cell-based, human cytomegalovirus; settings: 96 hpi; Torin1 250 nM; 0.05 PFU/cell
Experimental: FIG. 3. […] (A) Rapamycin-resistant mTOR activity is required for the accumulation of an some but not all HCMV proteins. […] Cells were harvested at the indicated times, and the accumulation of the indicated proteins was analyzed by Western blotting. […] At the indicated times DNA was isolated, and viral DNA was quantified by qPCR. Equivalent amounts of DNA were analyzed for each sample, and the results are normalized to the level of actin DNA per sample. […] At the indicated times the amount of UL99 RNA was determined by qPCR, and the results are normalized to the amount of actin RNA in each sample.
(§1) Determination of viral DNA and transcript accumulation in infected cells. The accumulation of viral DNA during HCMV infection was monitored by quantitative PCR (qPCR) as described previously (Terhune, et al. (2007) J. Virol. 81:3109-3123).
(§2) Briefly, primary human fibroblasts were infected with BADinGFP at a multiplicity of 0.05 PFU/cell. At the indicated times, cells were harvested by scraping them into medium and were stored as frozen cell pellets until analysis. Cell pellets were resuspended in 500 μl of a solution containing 400 mM NaCl, 10 mM Tris (pH 7.5), and 10 mM EDTA. […] For each sample, DNA was quantified by using a NanoDrop spectrophotometer (Thermo Scientific). […]
Viral DNA accumulation was measured by quantitative real-time PCR of fibroblasts treated with rapamycin or Torin1. […]

[4] = system: HCMV; experiment: HCMV entry: cell-associated viral DNA at 2 hpi by real-time PCR; format: cell-based, human cytomegalovirus; settings: 250 nM, 24 h pretreatment or after adsorption, 3 PFU/cell
Experimental: FIG. 2. […] Serum-starved confluent fibroblasts were infected with HCMV at a multiplicity of 3 PFU/cell. […] Control cultures received the vehicle in which Torin1 was dissolved (NT). At 2 hpi cells were harvested, and cell-associated viral DNA was quantified by real-time PCR analysis. Error bars represent the standard errors of the means from two independent experiments performed in duplicate. […] The level of IE1 was determined at 6 hpi by a Western blot assay using an IE1-specific monoclonal antibody. The image is representative of two independent experiments. […] The expression of a GFP marker gene present in the viral genome was monitored at 24 h after infection in the presence or absence of drug.
as §1, §2

[5] = system: 4EBP1; experiment: 4EBP1 phosphorylation in HSV-1-infected MEFs, Western blot; format: cell-based, mouse; settings: 3 PFU/cell, 8 hpi

## CCC(=O)N1CCN(c2ccc(-n3c(=O)ccc4cnc5ccc(-c6cnc7ccccc7c6)cc5c43)cc2C(F)(F)F)CC1 [Torin1]
[1]
  increase in virus yield after reversal of 8-day treatment: ≥ 100 fold
[2]; 4EBP1-null MEFs
  formation of the eIF4F complex: no such effect was observed
[2]; control MEFs
  formation of the eIF4F complex: inhibited the formation of the eIF4F complex
[3]
  reduction of viral DNA accumulation: 150 fold
[4]
  level of cell-associated viral DNA: not influenced
[5]
  phosphorylation of 4EBP1 during HSV-1 infection: inhibited
